Like-named read-outs stand apart in the source and are kept apart here.

In one assay the test system is RBL-2H3 cells. The assay is described as follows: Inhibition of serotonin liberation from IgE-sensitized, antigen-stimulated RBL-2H3 cells. The class given is cell-based. The following applies: Rattus norvegicus, [3H]-serotonin release, IgE-sensitized cells stimulated with specific antigen. An excerpt: (1) Inhibitory Effects on Various Mediators Release from Rat Basophilic Leukemia Cell Line (RBL-2H3)
RBL-2H3cells (i.e., a cell line originating in rat cells), by stimulation with IgE sepecific antigen, not only release histamine and serotonin but also release and produce cytokines such as TNF α and prostaglandins which are inflammatory mediators. In this experimental system, inhibitory effects on various mediators release were examined by using serotonin as an indication.
The cells were beforehand labeled with [^3H]-labeled serotonin and, at the same time, sensitized with the IgE antibody. After incubating with the compounds of the present invention, they were stimulated with the specific antigen. Then the inhibitory activity of each compound was calculated from the amount of the [^3H]-labeled serotonin thus liberated into the medium due to the stimulation and the amount of [^3H]-labeled serotonin liberated when no compound of the present invention was added.

The test system of a further assay is human basophils. The assay is described as follows: Inhibition of mediator (histamine, peptide leukotriene) liberation from human basophils stimulated with mite antigen. The class given is cell-based. Particulars: leukocyte fraction, enzyme immunoassay. Here is the method:
(2) Inhibitory Effects on Various Mediators Release from Human Basophils
6 ml of 6% dextran (for separating leukocytes, having a high molecular weight) was added to 20 ml of heparinized blood. After stirring well, the resulting mixture was allowed to stand at 37° C. for 30 min and thus erythrocytes were precipitated. The upper layer was taken up and phosphate buffered saline was added thereto followed by centrifugation at 185 g for 8 minutes to give a crude leukocyte fraction. These cells were subjected to hypotonic hematolysis and then suspended in D-PBS(+) containing 0.1%-BSA. The resulting suspension was used in the subsequent experiment as the leukocyte fraction containing basophils. 0.4 ml of this cell suspension was preliminarily heated to 37° C. for 5 min and then 0.05 ml of a specimen solution was added thereto followed by a pretreatment at 37° C. for 15 min. Next, 0.05 ml of a mite antigen solution was added thereto to induce an antigen-antibody reaction. After 10 min, the reaction was ceased by ice-cooling. Then the reaction mixture was centrifuged again at 185 g for 10 min and histamine and peptide leukotrienes in the resulting supernatant were determined by using enzyme immunoassay kits. From the results of the assay, the activities of the a heterocyclic ring condensed benzothiazine compound of inhibiting the liberation of histamine and peptide leukotriene were determined.
The results are given in Table 2, wherein the term “leukotriene” means peptide leukotriene.

Setting [1] is: histamine, read-out: IC50 (μM) in mediator liberation from human basophils: histamine.
The mark [2] stands for this setting: peptide leukotriene, read-out: IC50 (μM) in mediator liberation from human basophils: leukotriene.

On to `Cc1ccc2c(c1C)N(CCCNCc1ccccc1)c1ccsc1[S+]2[O-]` (centres unmarked) [Example 1, 9-(3-Benzylaminopropyl)-7,8-dimethyl-3-thieno [1,4]benzothiazine-4-oxide], for which the values for the IC50 in the assay on RBL-2H3 cells, in the assay with human basophils (setting [1]) and in the assay with human basophils (setting [2]) were 2 µM, 10 to 30 µM and 10 µM, respectively.
`Cc1ccc2c(c1C)N(CCCNC(C)(C)c1ccccc1)c1ccsc1[S+]2[O-]` (centres unmarked) [Example 2]: the IC50 in the assay with human basophils (setting [1]) was 30 µM; with human basophils (setting [2]), 10 to 30 µM.
As to `Cc1ccc2c(c1C)N(CCCN)c1ccsc1[S+]2[O-]` (centres unmarked) [Example 3, 9-(3-Aminopropyl)-7,8-dimethyl-3-thieno[1,4]benzothiazine-4-oxide], the IC50 in the assay with RBL-2H3 cells is 8 µM.
As for `Cc1ccc2c(c1C)N(CCCNCc1cccs1)c1ccsc1[S+]2[O-]` (centres unmarked) [Example 4, 7,8-Dimethyl-9-[3-(2-thiophenyl)methylaminopropyl]-3-thieno[1,4]benzothiazine-4-oxide], the IC50 in the assay with RBL-2H3 cells was 2 µM; with human basophils (setting [1]) it was 10 to 30 µM; in the assay on human basophils (setting [2]), 10 µM.
In the case of `COc1ccc(CNCCCN2c3ccsc3[S+]([O-])c3ccc(C)c(C)c32)o1` (centres unmarked) [Example 5], in the assay on RBL-2H3 cells, the IC50 was 6 µM.
On to `COc1ccsc1CNCCCN1c2ccsc2[S+]([O-])c2ccc(C)c(C)c21` (centres unmarked) [Example 6], for which the results for the IC50 with RBL-2H3 cells, in the assay with human basophils (setting [1]) and in the assay on human basophils (setting [2]) were 2 µM, 30 µM and 10 to 30 µM, respectively.
The corresponding values for `Cc1ccc2c(c1C)N(CCCNC(C)(C)c1ccccc1)c1c(Br)csc1[S+]2[O-]` (stereo not drawn) [Example 7, 1-Bromo-7,8-dimethyl-9-[3-(α,α-dimethylbenzyl)aminopropyl]-3-thieno[1,4]benzothiazine-4-oxide] are 2 µM, 3 to 10 µM and 3 to 10 µM.
The corresponding values for `Cc1ccc2c(c1C)N(CCCNCc1ccccc1)c1c(Br)csc1[S+]2[O-]` (centres unmarked) [Example 8, 9-(3-benzylaminopropyl)-7,8-dimethyl-3-thieno[1,4]benzothiazine-4-oxide] are 1 µM, 10 µM and 3 µM.
Turning to `COc1ccsc1CNCCCN1c2c(Br)csc2[S+]([O-])c2ccc(C)c(C)c21` (centres unmarked) [Example 9], the IC50 with RBL-2H3 cells was 0.5 µM; with human basophils (setting [1]), 10 to 30 µM; in the assay on human basophils (setting [2]), 3 µM.
As to `Cc1ccc2c(c1C)N(CCCNCc1cccc(F)c1O)c1c(Br)csc1[S+]2[O-]` (centres unmarked) [Example 10], the IC50 in the assay on RBL-2H3 cells was 0.5 µM; in the assay on human basophils (setting [1]), 30 µM; with human basophils (setting [2]), 3 to 10 µM.
The corresponding values for `Cc1ccc2c(c1C)N(CCCNCc1ccccc1)c1c(CO)csc1[S+]2[O-]` (centres unmarked) [Example 11, 9-(3-benzylaminopropyl)-1-hydroxymethyl-7,8dimethyl-3-thieno[1,4]benzothiazine-4-oxide] are 5 µM, 10 µM and 3 µM.
The corresponding values for `Cc1ccc2c(c1C)N(CCCNCc1ccccc1)c1c(sc(CO)c1Br)[S+]2[O-]` (centres unmarked) [Example 12, 1-Bromo-9-(3-benzylaminopropyl)-2-hydroxymethyl-7,8-dimethyl-3-thieno[1,4]benzothiazine-4-oxide] are 4 µM, 10 µM and 3 µM.
In the case of `Cc1ccc2c(c1C)N(CCCN)c1cccnc1[S+]2[O-]` (centres unmarked) [Example 13], in the assay on RBL-2H3 cells, the IC50 worked out at 3 µM.
Same read-out and setting: in the case of `Cc1ccc2c(c1C)N(CCCNCc1ccccc1)c1cccnc1[S+]2[O-]` (centres unmarked) [Example 15] it was 0.5 µM.
Take `Cc1ccc2c(c1C)N(CCCNCc1ccccc1O)c1cccnc1[S+]2[O-]` (centres unmarked) [Example 16]: the figures for the IC50 with RBL-2H3 cells, in the assay with human basophils (setting [1]) and with human basophils (setting [2]) were 2 µM, 10 µM and 10 to 30 µM, respectively.
The corresponding values for `COc1cccc(CNCCCN2c3cccnc3[S+]([O-])c3ccc(C)c(C)c32)c1O` (centres unmarked) [Example 17] are 2 µM, 10 to 30 µM and 10 to 30 µM.
As to `Cc1ccc2c(c1C)N(CCCNCc1cccc(C)c1O)c1cccnc1[S+]2[O-]` (centres unmarked) [Example 18], the IC50 was 2 µM in the assay on RBL-2H3 cells, 30 µM with human basophils (setting [1]) and 10 to 30 µM in the assay on human basophils (setting [2]).
As to `Cc1ccc2c(c1C)N(CCCCNCc1ccccc1)c1cccnc1[S+]2[O-]` (centres unmarked) [Example 19], the IC50 with RBL-2H3 cells was determined as 1 µM.
As for `COc1ccccc1CNCCCN1c2cccnc2[S+]([O-])c2ccc(C)c(C)c21` (centres unmarked) [Example 20], in the assay with RBL-2H3 cells, the IC50 stood at 5 µM.
Same read-out and setting: the value for `COc1cccc(CNCCCN2c3cccnc3[S+]([O-])c3ccc(C)c(C)c32)c1` (centres unmarked) [Example 24] was 4 µM; that for `COc1ccc(CNCCCN2c3cccnc3[S+]([O-])c3ccc(C)c(C)c32)cc1` (centres unmarked) [Example 25] was 2 µM; that for `Cc1ccc2c(c1C)N(CCCNCN1CCN(Cc3ccccc3)CC1)c1cccnc1[S+]2[O-]` (centres unmarked) [Example 26] was 2 µM.
With `Cc1ccc2c(c1C)N(CCCNCc1ccc(Cl)cc1Cl)c1cccnc1[S+]2[O-]` (centres unmarked) [Example 31], the IC50 is 2 µM in the assay on RBL-2H3 cells, 10 to 30 µM in the assay with human basophils (setting [1]) and 10 µM in the assay on human basophils (setting [2]).
The corresponding values for `COc1c(CNCCCN2c3cccnc3[S+]([O-])c3ccc(C)c(C)c32)ccc(Cl)c1Cl` (centres unmarked) [Example 33] are 2 µM, 10 to 30 µM and 3 to 10 µM.
Consider `Cc1ccc2c(c1C)N(CCCNC(C)(C)c1ccccc1)c1cccnc1[S+]2[O-]` (centres unmarked) [Example 34], for which the IC50 in the assay on RBL-2H3 cells came to 5 µM.
The same measure, in the same setting: the value for `Cc1ccc2c(c1C)N(CCCN(C)Cc1ccccc1)c1cccnc1[S+]2[O-]` (centres unmarked) [Example 35] was 3 µM.
With `Cc1ccc2c(c1C)N(CCCNCc1ccccc1)c1cnccc1[S+]2[O-]` (centres unmarked) [Example 36], the IC50 with RBL-2H3 cells turned out to be 4 µM.
Regarding `COc1cccc(CNCCCN2c3cnccc3[S+]([O-])c3ccc(C)c(C)c32)c1O` (centres unmarked) [Example 37], the values for the IC50 in the assay on RBL-2H3 cells, in the assay with human basophils (setting [1]) and in the assay on human basophils (setting [2]) were 3 µM, 30 µM and 30 µM, respectively.
Consider `Cc1ccc2c(c1C)N(CCCNCc1ccccc1N(C)C)c1cnccc1[S+]2[O-]` (centres unmarked) [Example 38], for which, in the assay on RBL-2H3 cells, the IC50 was found to be 4 µM.
Same read-out and setting: the value for `Cc1ccc2c(c1C)N(CCCNCN1CCN(Cc3ccccc3)CC1)c1cnccc1[S+]2[O-]` (centres unmarked) [Example 39] was 3 µM; that for `Cc1ccc2c(c1C)N(CCCNCc1ccccn1)c1cnccc1[S+]2[O-]` (centres unmarked) [Example 40] was 4 µM.
The same measure, in the same setting: the value for `Cc1ccc2c(c1C)N(CCCNCc1cccc(F)c1O)c1cnccc1[S+]2[O-]` (centres unmarked) [Example 41] was 3 µM.
With `COc1ccc2c(n1)[S+]([O-])c1ccc(C)c(C)c1N2CCCNCc1ccccc1` (centres unmarked) [Example 43], the figures for the IC50 with RBL-2H3 cells, in the assay with human basophils (setting [1]) and in the assay on human basophils (setting [2]) were 2 µM, 30 µM and 10 µM, respectively.
Take `Cc1ccc2c(n1)[S+]([O-])c1ccc(C)c(C)c1N2CCCNCc1ccccc1` (centres unmarked) [Example 44]: in the assay on RBL-2H3 cells, the IC50 is 2 µM.
On the same count and under the same terms, in the case of `Cc1ccc2c(c1C)N(CCCNCc1ccccc1)c1cc(Br)cnc1[S+]2[O-]` (centres unmarked) [Example 45] it was 1 µM; in that of `Cc1ccc2c(c1C)N(CCCNCc1ccccc1)c1cc(Cl)cnc1[S+]2[O-]` (centres unmarked) [Example 46], 2 µM; in that of `Cc1cnc2c(c1)N(CCCNCc1ccccc1)c1c(ccc(C)c1C)[S+]2[O-]` (centres unmarked) [Example 47], 3 µM.
On the same count and under the same terms, in the case of `Cc1ccc2c(c1C)N(CCCNCc1ccccc1)c1cc(C#N)cnc1[S+]2[O-]` (centres unmarked) [Example 48] it was 4 µM.
In the case of `CCCOc1ccc2c(n1)[S+]([O-])c1ccc(C)c(C)c1N2CCCNCc1ccccc1` (centres unmarked) [Example 49], the IC50 in the assay on RBL-2H3 cells was 2 µM; with human basophils (setting [1]), 10 to 30 µM; in the assay with human basophils (setting [2]), 3 µM.
As for `CCOc1ccc2c(n1)[S+]([O-])c1ccc(C)c(C)c1N2CCCNCc1ccccc1` (centres unmarked) [Example 52], the IC50 was 3 µM in the assay on RBL-2H3 cells, 10 to 30 µM with human basophils (setting [1]) and 3 µM with human basophils (setting [2]).
